Measured values published in ChEMBL document CHEMBL1154071, “Studies towards the identification of putative bioactive conformation of potent vasodilator arylidene N-acylhydrazone derivatives” (Eur J Med Chem, 2009).
Active and inactive are the calls of the source. The calls are words filed in the database; no cut-off is given here.

How the values were obtained:
[1] = test system: Aorta; assay: Vasorelaxant activity in endothelium-intact Wistar rat thoracic aortic ring assessed as inhibition of phenylephrine-induced contraction at 200 uM; format: functional
[2] = test system: Aorta; assay: Vasorelaxant activity in endothelium-denuded Wistar rat thoracic aortic ring assessed as inhibition of phenylephrine-induced contraction at 200 uM; format: functional
[3] = test system: Aorta; assay: Vasorelaxant activity in endothelium-denuded Wistar rat thoracic aortic ring assessed as inhibition of phenylephrine-induced contraction; format: functional, tissue-based
[4] = test system: Aorta; assay: Vasorelaxant activity in endothelium-intact Wistar rat thoracic aortic ring assessed as complete inhibition of phenylephrine-induced contraction at 20 uM in intact endothelium; format: functional, tissue-based
[5] = test system: Aorta; assay: Vasorelaxant activity in endothelium-intact Wistar rat thoracic aortic ring assessed as inhibition of phenylephrine-induced contraction; format: functional, tissue-based
[6] = molecular target: T1, 3',5'-cyclic-AMP phosphodiesterase 4B (Homo sapiens, UniProt Q07343); assay: Inhibition of PDE4B up to 30 uM
T1 sequence (Q07343 whole entry): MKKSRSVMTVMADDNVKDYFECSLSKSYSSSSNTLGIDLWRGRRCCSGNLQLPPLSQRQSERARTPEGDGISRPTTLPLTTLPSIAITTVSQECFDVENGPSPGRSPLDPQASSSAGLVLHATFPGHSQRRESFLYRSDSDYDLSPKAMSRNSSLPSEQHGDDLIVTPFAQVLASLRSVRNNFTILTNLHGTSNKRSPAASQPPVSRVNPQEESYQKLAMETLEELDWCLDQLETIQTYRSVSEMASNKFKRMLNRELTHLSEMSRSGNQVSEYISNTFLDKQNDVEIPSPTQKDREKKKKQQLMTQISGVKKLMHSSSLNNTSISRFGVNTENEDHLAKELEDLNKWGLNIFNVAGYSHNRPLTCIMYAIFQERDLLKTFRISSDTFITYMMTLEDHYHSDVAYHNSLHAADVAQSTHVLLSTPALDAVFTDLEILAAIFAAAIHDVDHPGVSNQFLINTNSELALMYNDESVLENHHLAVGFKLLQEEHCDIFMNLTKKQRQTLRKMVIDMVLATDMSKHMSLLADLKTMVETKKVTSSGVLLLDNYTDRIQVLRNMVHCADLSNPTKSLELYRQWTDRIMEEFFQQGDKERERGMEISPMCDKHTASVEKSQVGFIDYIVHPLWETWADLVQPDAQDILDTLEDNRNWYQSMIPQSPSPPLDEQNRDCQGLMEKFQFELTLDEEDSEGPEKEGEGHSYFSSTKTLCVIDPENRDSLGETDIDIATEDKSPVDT

[7] = molecular target: cGMP-dependent 3',5'-cyclic phosphodiesterase (Homo sapiens) (UniProt O00408); assay: Inhibition of PDE2A up to 30 uM
cGMP-dependent 3',5'-cyclic phosphodiesterase (Homo sapiens), sequence (O00408 whole entry): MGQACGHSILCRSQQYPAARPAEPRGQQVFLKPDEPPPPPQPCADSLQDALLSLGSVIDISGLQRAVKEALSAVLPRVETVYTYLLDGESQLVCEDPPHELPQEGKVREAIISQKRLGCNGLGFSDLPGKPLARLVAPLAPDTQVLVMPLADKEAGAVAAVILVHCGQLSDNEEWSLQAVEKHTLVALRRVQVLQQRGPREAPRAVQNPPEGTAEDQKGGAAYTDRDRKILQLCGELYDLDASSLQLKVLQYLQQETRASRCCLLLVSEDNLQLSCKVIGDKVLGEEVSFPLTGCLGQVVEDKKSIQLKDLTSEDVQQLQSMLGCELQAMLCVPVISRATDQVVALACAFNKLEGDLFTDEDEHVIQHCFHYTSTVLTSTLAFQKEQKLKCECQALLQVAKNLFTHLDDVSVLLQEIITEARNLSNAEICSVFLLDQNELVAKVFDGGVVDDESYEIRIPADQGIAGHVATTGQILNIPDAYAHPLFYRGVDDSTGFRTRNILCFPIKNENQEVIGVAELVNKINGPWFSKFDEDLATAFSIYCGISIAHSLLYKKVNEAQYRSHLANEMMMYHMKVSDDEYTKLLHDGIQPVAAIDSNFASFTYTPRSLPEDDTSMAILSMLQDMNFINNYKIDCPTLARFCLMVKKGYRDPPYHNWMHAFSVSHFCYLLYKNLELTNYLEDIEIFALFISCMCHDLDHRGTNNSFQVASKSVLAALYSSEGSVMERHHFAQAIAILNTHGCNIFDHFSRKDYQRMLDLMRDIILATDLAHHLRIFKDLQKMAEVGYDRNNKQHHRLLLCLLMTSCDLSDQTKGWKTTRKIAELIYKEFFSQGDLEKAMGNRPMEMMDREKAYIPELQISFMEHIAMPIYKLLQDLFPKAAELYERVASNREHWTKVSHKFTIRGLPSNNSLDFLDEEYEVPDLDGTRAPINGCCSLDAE

[8] = test system: Aorta; assay: Vasorelaxant activity in endothelium-denuded Wistar rat thoracic aortic ring assessed as inhibition of phenylephrine-induced contraction at 100 uM; format: functional
[9] = molecular target: cGMP-specific 3',5'-cyclic phosphodiesterase (Homo sapiens) (UniProt O76074); assay: Inhibition of PDE5 up to 30 uM
[10] = test system: Aorta; assay: Vasorelaxant activity in endothelium-intact Wistar rat thoracic aortic ring assessed as inhibition of phenylephrine-induced contraction at 500 uM; format: functional
[11] = test system: Aorta; assay: Vasorelaxant activity in endothelium-denuded Wistar rat thoracic aortic ring assessed as inhibition of phenylephrine-induced contraction at 500 uM; format: functional
[12] = molecular target: T1, 3',5'-cyclic-AMP phosphodiesterase 4B; assay: Inhibition of PDE4B

Work on `O=C(N/N=C/c1ccc[nH]1)c1ccc2c(c1)OCO2` yielded an inhibition at 200 µM [1] of under 50% and an inhibition at 200 µM [2] of under 50%.

`CN(/N=C/c1ccccc1)C(=O)c1ccc2c(c1)OCO2` was tested, and the IC50 [3] was 11.1 µM, the Activity [4] was “Active” and the IC50 [5] was 3.5 µM.

In the case of `O=C(N/N=C/c1cccs1)c1ccc2c(c1)OCO2`, the Activity [6] is reported as “inactive”, the Activity [7] is reported as “inactive” and the inhibition at 100 µM [8] is reported as under 50%. The Activity [9] was “inactive”, the Activity [5] was “Dose-dependent effect” and the IC50 [5] was 74 µM.

`O=C(N/N=C/c1ccccc1)c1ccc2c(c1)OCO2` gave an inhibition at 500 µM [10] of 70.7%, an inhibition at 500 µM [11] of under 50% and an IC50 [5] of 81 µM.

For `CN(/N=C/c1ccco1)C(=O)c1ccc2c(c1)OCO2`, the IC50 [3] was 15.7 µM and the IC50 [5] was 40.8 µM.

`O=C(N/N=C/c1ccco1)c1ccc2c(c1)OCO2` showed an inhibition at 500 µM [10] of under 50% and an inhibition at 500 µM [11] of under 50%.

In the case of `CN(/N=C/c1cccs1)C(=O)c1ccc2c(c1)OCO2`, the IC50 [3] is reported as 18.5 µM, the Activity [7] is reported as “inactive” and the IC50 [12] is reported as over 30 µM. For the same compound, the Activity [9] was “inactive”, the Activity [5] was “Dose-dependent effect” and the IC50 [5] was 10.2 µM.

`CN(/N=C/c1ccc[nH]1)C(=O)c1ccc2c(c1)OCO2` gave an IC50 [3] of 17.8 µM and an IC50 [5] of 3.1 µM.
